Experimental data from patent publication US11891425B2, “Thioamide-modified peptides and uses thereof” (THE TRUSTEES OF THE UNIVERSITY OF PENNSYLVANIA, priority 2014, dated 2024).
Like-named read-outs stand apart in the source and are kept apart here.

Columns and labels:
[1] = cited from earlier work
FIG. 17 = assay: FIG. 17
Experimental: Table printed on a drawing sheet, FIG. 17
The patent's description of the figure: FIG. 17 illustrates systematic scanning of the effects of thioamide modification position in a peptide. The thioamide modifications were conducted at different positions of the peptide chain. The resulting peptides were mixed with either papain or trypsin enzymes to measure the changes of fluorescence intensity. The “+” sign after the peptide sequence means the presence of the corresponding enzyme. The “−” sign after the peptide sequence means the lack of the corresponding enzyme.
First reader's note: Raised S after a residue marks the thioamide position; the half-lives are proteolytic half-lives in the presence of papain or trypsin.

[2] = native peptide, DPP-4 substrate

Papain t1/2 (FIG. 17) | Trypsin t1/2 (FIG. 17) | Substance | half-life (in vivo / circulating) [1, 2] | half-life (in vivo / circulating) ([1]; in vivo)
5 min | 2 min | μLLKAAA^Sμ [compound 58] | – | –
4 min | 2 min | μLLKAA^SAμ [compound 57] | – | –
>30 min | 3 min | μLLKA^SAAμ [compound 56] | – | –
12 min | >200 min | μLLR^SAAAμ [compound 55] | – | –
180 min | 2 min | μLL^SKAAAμ [compound 54] | – | –
4 min | 4 min | μL^SLKAAAμ [compound 53] | – | –

Continued, substance first:

Substance | Papain t1/2 (FIG. 17) | Trypsin t1/2 (FIG. 17) | half-life (in vivo / circulating) [1, 2] | half-life (in vivo / circulating) ([1]; in vivo)
ENT: enterostatin, SEQ ID NO:47 (APGPR; listed as Homo sapiens) | – | – | 5 min | –
GHRH: growth-hormone-releasing hormone, SEQ ID NO:43 | – | – | 19 min | –
GIP: glucose-dependent insulinotropic factor, SEQ ID NO:5 | – | – | – | less than 15 minutes
NPY: neuropeptide Y, SEQ ID NO:23, 36-amino acid peptide | – | – | 15 to 20 min | –
μLLKAAAμ [compound 52] | 5 min | 1 min | – | –
